Test results from patent US8835171B2, “Materials and methods related to sodium/potassium adenosine triphosphase and cholesterol” (The University of Toledo, priority 2010, dated 2014).
Blank lines part the entries; values can stand above or below the compound they belong to.

Tests used:
[1] = target: T1, purified pig kidney Na/K-ATPase (PKE) (Sus scrofa, UniProt P05024); assay: NBD-cholesterol binding assay with purified pig kidney enzyme (PKE)
T1 construct: Purified Na/K-ATPase membrane samples (PKE) were prepared from pig kidney medulla; from tissue; host or cells: pig kidney outer medulla
Source text: As the purified membrane fragments contained large amount of cholesterol, which may already saturated binding sites on the Na/K-ATPase, most of the cholesterol content was extracted by Mβ-CD (FIG. 5B). To study the binding between the Na/K-ATPase and cholesterol, a cholesterol analogue, 25-[N-[(7-nitro-2-1,3-benzoxadiazol-4-yl)methyl]amino]-27-norcholesterol (NBD cholesterol), was used for the binding assay. NBD-cholesterol was used for the study of protein-cholesterol interaction before. Unlike cholesterol, NBD-cholesterol is able to emit fluorescence signals that peak at ˜530 nm when excited at 473 nm because of the replacement of the methyl group at C25 position with an NBD group (FIG. 5C). In the aqueous solution, its fluorescence is largely quenched. However, when it binds to a protein and is exposed to a hydrophobic environment, the fluorescence signals will increase. Moreover, it has much higher critical micelle concentration (˜650 nM) than that of the cholesterol (30 nM) so that higher concentrations of the NBD-cholesterol can be used during the binding assay. […] The Kd value is 100 nM-200 nM.
To further confirm that the results represented lipid-protein interaction instead of lipid-lipid interaction, the inventors measured fluorescence resonance energy transfer (FRET) signals. […]

[2] = system: insulin receptor β subunit; assay: Western blot of insulin receptor in LLC-PK1 cells; type: cell-based, pig
Procedure: (§1) Protein concentrations of cell lysates or tissue homogenates were measured by Protein Assay Kit from Bio-Rad (Hercules, Calif.). Equal amounts of protein were loaded onto the gel and separated on 10% SDS-PAGE, transferred to an Optitran membrane, and probed with corresponding antibodies. Protein signals were detected with an ECL kit. The density of the Western bands was quantified by the free software Image J.

wild-type rat α1 = assay: α1 and filipin staining in wild-type rat α1-rescued cells (AAC-19); type: cell-based; settings: AAC-19 cells, different doses of U18666A 24 h
Procedure: Thus, it was of interest to explore whether the CRAC plays a role in cholesterol depletion-induced α1 endocytosis. Firstly, the inventors treated wild-type rat α1 rescued-cells, AAC-19, with U18666A and stained both α1 and cholesterol. […] Staining of the Na/K-ATPase α1 was performed as previously described. Briefly, cells were serum-starved for 24 hours and treated on coverslips. The cells were then fixed with ice-cold methanol for 30 min and blocked with Signal Enhancer from Invitrogen. Next, cells were incubated with a monoclonal anti-Na/K-ATPase α1 antibody at 4° C. overnight. After three washes with PBS, a secondary Alex 488-conjugated anti-mouse antibody was added and incubated at room temperature for 3 hours. The coverslip was washed, mounted and imaged with a Leica confocal microscope.

Na/K-ATPase α1 [3] = assay: Immunostaining / confocal imaging of Na/K-ATPase α1 distribution in LLC-PK1 cells; type: cell-based, pig
LLC-PK1 cells [4] = assay: Cholesterol assay of LLC-PK1 cell lysates; type: cell-based, pig; settings: U18666A-treated cells
Procedure: LLC-PK1 cells were grown in 6 cm culture dish to 100% confluence and serum starved for 24 hours. […] […] Cell lysates were subject to protein assay and Western blot analysis. Cholesterol assay and filipin staining were performed as described in Chen et al., Regulation of intracellular cholesterol distribution by Na/K-ATPase. Journal Biological Chemistry, Volume 284, pages 14881-14890 (2009).

LLC-PK1 cells [5] = assay: Filipin staining of cholesterol distribution in LLC-PK1 cells; type: cell-based, pig; settings: U18666A 24 h
Procedure: Cholesterol assay and filipin staining were performed as described in Chen et al., Regulation of intracellular cholesterol distribution by Na/K-ATPase. Journal Biological Chemistry, Volume 284, pages 14881-14890 (2009).

cell surface Na/K-ATPase = assay: 3H-ouabain binding assay of cell surface Na/K-ATPase; type: cell-based, pig; settings: LLC-PK1 cells, U18666A
Procedure: [3H]Ouabain Binding was conducted as described in Tian et al., Changes in sodium pump expression dictate the effects of ouabain on cell growth, Journal of Biological Chemistry, 14921-1429 (2009).

Na/K-ATPase α1 [6] = assay: Western blot of Na/K-ATPase α1 level in LLC-PK1 cells; type: cell-based, pig
Procedure: as §1, with “LLC-PK1 cells were grown in 6 cm culture dish to 100% confluence and serum starved for 24 hours. Cells were then treated by 10 mM Mβ-CD for 1 hour. […] Cell lysates were subject to protein assay and Western blot analysis. Protein concentrations” for “Protein concentrations”

Y55S mutant rat α1 = assay: α1 and filipin staining in Y55S mutant rat α1-rescued cells (PY-17-Y55S); type: cell-based; settings: PY-17-Y55S cells, different doses of U18666A 24 h
Source text: Next, the inventors mutated the essential Tyr55 in the rat α1 CRAC (corresponds to the Tyr53 in pig α1) to Ser55 by a site-directed mutagenesis method and generated the stable mutant rat α1-rescued cell line (PY-17-Y55S). Once the cell line was established, the inventors did the same experiment as on AAC-19 cells. […] To confirm the findings, the inventors had the CRAC synthesized with a positively charged leader peptide, HIV-TAT, tagged to the N-terminus of CRAC so that the TAT-CRAC peptide was cell permeable. Theoretically, loading of the TAT-CRAC peptide into the cells may interrupt the binding between endogenous α1 and cholesterol by competitive inhibition. […] Taken together, the cholesterol-regulated Na/K-ATPase α1 membrane trafficking is dependent on the cholesterol-α1 interaction.
The rat α1 CRAC mutant (Tyr55 to Ser55) was created by PCR-based site-directed mutagenesis on the pRc/CMV-a1AACm1 plasmid as generated previously. The Y55S mutant rat α1 knock-in cell line was then established using the same protocol described before. The pEYFP-α1 plasmid was generated as described previously. RFP-rab7 plasmid was requested from www.addgene.org. The preparation of plasmid constructs expressing GST fusion proteins were made from pGEX-4T-1 as previously described. GST-NT (Ala1-Ser160) and GST-NT-Y55S expression vectors were constructed based on sequence of pig kidney Na/K-ATPase α1 subunit. […]

Na/K-ATPase α1 mRNA = assay: Quantitative RT-PCR of α1 mRNA; type: cell-based, pig; settings: LLC-PK1 cells, 10 μg/ml U18666A 24 h
Procedure: The quantitative RT-PCR on mRNA levels of Na/K-ATPase α1 and GAPDH were performed as described in Tian et al., Changes in sodium pump expression dictate the effects of ouabain on cell growth, Journal of Biological Chemistry, 14921-1429 (2009).

caveolin-1 = assay: Western blot of caveolin-1 in LLC-PK1 cells; type: cell-based, pig; settings: U18666A 48 h
Procedure: as §1

LLC-PK1 cells [7] = settings: 10 mM Mβ-CD 30-60 minutes at 37°, previous work from the inventors' lab; cited from earlier work

Compound: CCN(CC)CCO[C@H]1CC[C@@]2(C)C(=CC[C@@H]3[C@@H]2CC[C@]2(C)C(=O)CC[C@@H]32)C1 [U18666A]
insulin receptor content ([2]; LLC-PK1 cells after U18666A treatment): remained undisturbed | endocytosis of α1 (wild-type rat α1): endocytosis of α1 in a dose-dependent manner | intracellular α1 accumulation, colocalization with RFP-Rab7 (Na/K-ATPase α1 [3]; LLC-PK1 cells transfected with RFP-rab7, 5 μg/ml U18666A 24 h): massive intracellular α1 accumulation, most of which clearly colocalized with the Rab7 signals | colocalization of internalized YFP-α1 with free cholesterol (Na/K-ATPase α1 [3]; LLC-PK1 cells transfected with YFP-α1, 5 μg/ml U18666A 24 h): most of the internalized α1 colocalized with free cholesterol | α1 signals, cellular distribution (Na/K-ATPase α1 [3]; LLC-PK1 cells, U18666A 24 h): reduced in the plasma membrane but increased in the intracellular compartments | total cellular cholesterol (LLC-PK1 cells [4]): no significant difference | distribution of free cholesterol (LLC-PK1 cells [5]): redistribution of free cholesterol from the plasma membrane to intracellular compartments | cell surface α1 by 3H-ouabain binding (cell surface Na/K-ATPase): downregulation of cell surface α1 | downregulation of α1 expression (Na/K-ATPase α1 [6]; U18666A 24 h and 48 h): both dose and time-dependent | endocytosis of α1 (Y55S mutant rat α1): no obvious endocytosis | α1 mRNA level (Na/K-ATPase α1 mRNA): no difference compared to control | caveolin-1 protein level (caveolin-1): downregulated

Compound: methyl β-cyclodextrin [Mβ-CD]
expression of insulin receptor ([2]; during cholesterol depletion by Mβ-CD and repletion): unchanged | α1 immunostaining signals (Na/K-ATPase α1 [3]; Mβ-CD treated LLC-PK1 cells): lower α1 signals from the plasma membrane | plasma membrane cholesterol pool (LLC-PK1 cells [7]): significantly lowered | decrease in α1 level (Na/K-ATPase α1 [6]; 10 mM Mβ-CD 1 h, 0 h recovery): ~40%

Compound: C[C@@H]1C[C@@H]([C@H](O)CC2CC(=O)NC(=O)C2)C(=O)[C@@H](C)C1 [cycloheximide]
effect on U18666A-induced α1 redistribution to the intracellular compartments (Na/K-ATPase α1 [3]; cycloheximide 10 μg/ml 1 h before U18666A 24 h): did not prevent

The next lines start with the values.

FRET signals at 530 nm on incubation with PKE ([1]; Trp excited at 295 nm): dose-dependent saturation curve
Compound: CC(CCC[C@@H](C)[C@@H]1CC[C@H]2[C@@H]3CC=C4C[C@@H](O)CC[C@]4(C)[C@H]3CC[C@@]21C)N(C)c1ccc([N+](=O)[O-])c2nonc12 (stereo partly shown) [NBD-cholesterol, 25-[N-[(7-nitro-2-1,3-benzoxadiazol-4-yl)methyl]amino]-27-norcholesterol]

competition of binding between NBD-cholesterol and purified PKE ([1]; 100 nM PKE, 30 nM NBD-cholesterol, FRET): competed the binding
Compound: CC(C)CCC[C@@H](C)[C@H]1CC[C@H]2[C@@H]3CC=C4C[C@@H](O)CC[C@]4(C)[C@H]3CC[C@]12C [cholesterol]
